Each structure is given as a SMILES string.

This is an account of results in publication PMC11678237 (2024).

For experiment [1], the system named is poly(dA)•2poly(dT) (DNA, polymer) A/T. Kind of experiment: UV melting, 260 nm. As to conditions: pH 7.0; for binding / ΔTm3→2: 150 mM KCl, 10 mM sodium cacodylate; for ΔTm3→2: per base.
The test system of experiment [2] is DNA3 (DNA, triplex) GAAAAAAAAAAAAAGTTTTCTTTTTTTTTTTTCTTTTCTTTTTTTTTTTTTC
Kind of experiment: ITC. As to conditions: 100 mM NaCl, 10 mM sodium cacodylate, pH 7.0, 15 °C; for Kd: independent model.

The test system of experiment [3] is DNA4 (DNA, hairpin) GAAAAAAAAAAAAAGTTTTCTTTTTTTTTTTTTC
As to the kind of experiment: CD titration. As to conditions: 100 mM NaCl; 10 mM sodium cacodylate, pH 7.0, 15 °C; 0 to 50 μM compound.

Experiment [4] shares this test system. As to the kind of experiment: ITC. As to conditions: 100 mM NaCl; 10 mM sodium cacodylate, pH 7.0, 15 °C; 100 μM ligand titrant; heat of dilution only.
Experiment [5] concerns poly(dA)•2poly(dT) (DNA, polymer) A/T. As to the kind of experiment: viscosity. As to conditions: 150 mM KCl; 10 mM sodium cacodylate, pH 7.0, room temperature; intercalation.
For experiment [6], the system named is poly(dA)•poly(dT) (DNA, polymer) A/T. Kind of experiment: UV melting. As to conditions: 150 mM KCl; 10 mM sodium cacodylate, pH 7.0; 10 μM compound; Tm2→1 stays near 72 °C.
The subject of experiment [7] is DNA3 (DNA, triplex) GAAAAAAAAAAAAAGTTTTCTTTTTTTTTTTTCTTTTCTTTTTTTTTTTTTC
As to the kind of experiment: CD titration. As to conditions: 100 mM NaCl; 10 mM sodium cacodylate, pH 7.0, 15 °C; 0 to 50 μM compound.

Experiment [8] concerns DNA1/DNA2/TFO1 triplex (DNA, triplex) ATGGCAAAAAAAAGGAGAAGCTGACCACCTGACTA/TAGTCAGGTGGTCAGCTTCTCCTTTTTTTTGCCAT/CTTTCTTTTTTTTTCCTCTTC
Kind of experiment: native PAGE gel shift. As to conditions: none added; 90 mM Tris–acetate, pH 5.0; 1 to 100 μM compound; triplex formation promoted.

Setting [9] is: 10 μM compound, 15 μM base triplet.
The mark [10] stands for this setting: 10 mM lithium cacodylate, no added salt, 10 μM compound, Tm not shift, no triplex without ligand, duplex Tm 58 °C.

With `CC(C)CCCOc1cccc2oc(-c3ccccc3)cc(=O)c12`, the binding result in experiment [1] (setting [9]) is listed as “no”.

As to `CCCN(CCC)CCCOc1cccc2oc(-c3ccccc3)cc(=O)c12`, the ΔTm3→2 in experiment [1] (setting [9]) amounted to 23.8 °C. For `CCN(CC)CCCOc1cccc2oc(-c3ccccc3)cc(=O)c12`, the ΔTm3→2 in experiment [1] (setting [9]) stood at 24.4 °C.

Consider `CN1CCN(CCCOc2cccc3oc(-c4ccccc4)cc(=O)c23)CC1`, for which, in experiment [1] (setting [9]), the ΔTm3→2 is 25.7 °C. Still for that read-out and setting: the result for `NCCCOc1cccc2oc(-c3ccccc3)cc(=O)c12` reads 23.2 °C.

In the case of `NC[C@@H]1O[C@H](O[C@H]2[C@@H](O)[C@H](O[C@@H]3[C@@H](O)[C@H](N)C[C@H](N)[C@H]3O[C@H]3O[C@H](CN)[C@@H](O)[C@H](O)[C@H]3N)O[C@@H]2CO)[C@H](N)[C@@H](O)[C@@H]1O`, the binding entry in experiment [1] (0 to 20 μM compound, no effect at 0.5 μM) was “yes”. Regarding `O=c1cc(-c2ccccc2)oc2cccc(O)c12`, the binding entry in experiment [2] (100 μM ligand titrant, heat of dilution only) was “no”; in experiment [1] (setting [9]) it was “weak”. For `O=c1cc(-c2ccccc2)oc2cccc(OCCCCN3CCCCC3)c12`, the Kd in experiment [2] is reported as 3.08 ± 1.26 × 10^-5 M. In addition, the Tm3→2 in experiment [1] (setting [10]) stood at 40 °C. Also, the ΔTm3→2 in experiment [1] (setting [9]) amounted to 12.1 °C.

For the molecule `O=c1cc(-c2ccccc2)oc2cccc(OCCCN3CCCC3)c12`, the ΔTm3→2 in experiment [1] (setting [9]) was 19.4 °C. For the molecule `O=c1cc(-c2ccccc2)oc2cccc(OCCCN3CCCCC3)c12`, the binding entry in experiment [3] is “no”; in experiment [4] it was “no”; in experiment [5], “yes”; in experiment [6] it was “no”; in experiment [7], “yes”; in experiment [8], “yes”. For the same molecule, the Kd in experiment [2] is on record as 1.01 ± 0.20 × 10^-5 M. Moreover, in experiment [1] (setting [10]), the Tm3→1 was found to be 60.7 °C. In the case of `O=c1cc(-c2ccccc2)oc2cccc(OCCCN3CCOCC3)c12`, the ΔTm3→2 in experiment [1] (setting [9]) turned out to be 26.7 °C. The same measure, in the same setting: the result for `O=c1cc(-c2ccccc2)oc2cccc(OCCCO)c12` reads 5.4 °C. `O=c1cc(-c2ccccc2)oc2cccc(OCCN3CCCCC3)c12`: the Kd in experiment [2] was 2.10 ± 1.12 × 10^-5 M. The Tm3→2 in experiment [1] (setting [10]) was 55 °C. In addition, the ΔTm3→2 in experiment [1] (setting [9]) is 22.6 °C.
